Results reported in patent US8822449B2, “Substituted aminoindanes and analogs thereof, and the pharmaceutical use thereof” (Sanofi, priority 2008, dated 2014).
pIC50: −log10 of the molar value.

What follows are compounds tested against T1, sodium-proton exchanger of subtype 3 (NHE3) (Homo sapiens, UniProt P48764) (assay: Recovery of intracellular pH (pHi) after acidification in LAP1 cells stably expressing NHE3 (BCECF fluorescence, FLIPR)). Conditions: LAP1 cells stably expressing NHE3; pH recovery after acidification; range 1 is % inhibition at 10 μM; read-out: Activity range (inhibitory effect on NHE3).
T1 construct: expressed in transfected cells
T1 sequence (P48764 26-834): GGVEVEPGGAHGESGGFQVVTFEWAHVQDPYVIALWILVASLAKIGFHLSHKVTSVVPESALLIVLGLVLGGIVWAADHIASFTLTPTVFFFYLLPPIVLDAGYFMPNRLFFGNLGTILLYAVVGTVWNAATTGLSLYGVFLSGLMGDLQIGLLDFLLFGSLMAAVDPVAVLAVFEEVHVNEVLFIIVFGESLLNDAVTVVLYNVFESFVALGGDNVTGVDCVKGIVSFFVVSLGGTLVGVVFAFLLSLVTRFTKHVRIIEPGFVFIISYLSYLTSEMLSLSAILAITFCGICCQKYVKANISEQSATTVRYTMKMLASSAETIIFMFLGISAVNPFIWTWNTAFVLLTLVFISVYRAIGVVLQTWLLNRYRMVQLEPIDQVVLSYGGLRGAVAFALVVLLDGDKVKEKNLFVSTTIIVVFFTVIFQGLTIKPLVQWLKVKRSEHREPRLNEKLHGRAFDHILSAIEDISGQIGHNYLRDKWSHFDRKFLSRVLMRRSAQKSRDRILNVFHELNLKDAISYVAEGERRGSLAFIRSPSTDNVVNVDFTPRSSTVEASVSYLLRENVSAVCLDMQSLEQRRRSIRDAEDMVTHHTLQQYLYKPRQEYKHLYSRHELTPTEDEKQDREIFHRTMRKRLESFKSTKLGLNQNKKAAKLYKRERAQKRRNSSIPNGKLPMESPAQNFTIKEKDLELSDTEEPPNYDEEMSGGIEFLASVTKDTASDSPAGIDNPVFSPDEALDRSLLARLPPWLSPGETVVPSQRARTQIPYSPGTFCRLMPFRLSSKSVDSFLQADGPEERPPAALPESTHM
Format: cell-based
With `CCN(CC)[C@@H]1Cc2ccccc2[C@H]1Oc1cccc(NC(N)=O)c1` (racemic) [Example 212, [3-(rac-trans-(1,2)-2-diethylaminoindan-1-yloxy)phenyl]-urea] the pIC50 was 5.00 to 6.00. `CS(=O)(=O)c1ccc(O[C@H]2c3ccccc3C[C@@H]2N2CCC[C@@H](NC(=O)C(F)(F)F)C2)cc1` [Example 354, 2,2,2-trifluoro-N-{(R)-1-[trans-(1S,2S)-1-(4-methanesulfonylphenoxy)indan-2-yl]piperidin-3-yl}acetamide] was tested, and the inhibition at 10 µM was 20 to 50%. `NC(=O)c1cccc(O[C@H]2c3ccccc3CC[C@@H]2N2CCC[C@H](N)C2)c1` (racemic) [Example 412, 3-[rac-trans-(1,2)-2-((S)-3-aminopiperidin-1-yl)-1,2,3,4-tetrahydronaphthalen-1-yloxy]benzamide] showed an inhibition at 10 µM of 20 to 50%. Work on `CN(C)C[C@@H]1Cc2ccccc2[C@H]1Oc1ccc(S(C)(=O)=O)cc1` (racemic) [Example 244] yielded an inhibition at 10 µM of 20 to 50%. `CS(=O)(=O)c1ccccc1O[C@H]1c2cc(Cl)cc(Cl)c2C[C@@H]1N1CCC[C@@H](N)C1` [Example 25, (R)-1-[(1S,2S)-4,6-dichloro-1-(2-methanesulfonylphenoxy)indan-2-yl]piperidin-3-ylamine] was tested, and the pIC50 was > 6.00. For `Clc1cnccc1O[C@H]1c2ccccc2C[C@@H]1CN1CCCC1` (racemic) [Example 443, 3-chloro-4-(2-pyrrolidin-1-ylmethylindan-1-yloxy)pyridine], the inhibition at 10 µM was 20 to 50%. `O=C1CNC(=O)N1c1ccc(Cl)c(O[C@H]2c3cc(Cl)cc(Cl)c3C[C@@H]2N2CC[C@@H](O)C2)c1` [Example 433, 3-{4-chloro-3-[(1S,2S)-4,6-dichloro-2-((R)-3-hydroxypyrrolidin-1-yl)indan-1-yloxy]phenyl}imidazolidine-2,4-dione] was tested, and the pIC50 was 5.00 to 6.00. Compound `Cc1ccc(O[C@@H]2c3ccccc3C[C@H]2N2C[C@H]3CNC[C@H]3C2)c(Br)c1` (racemic) [Example 10, 2-[rac-trans-(1,2)-1-(2-bromo-4-methylphenoxy)indan-2-yl]octahydropyrrolo[3,4-c]pyrrole] has a pIC50 of 5.00 to 6.00. With `CS(=O)(=O)c1ccc(O[C@H]2c3cc(Cl)cc(F)c3C[C@@H]2N2CC[C@@H](O)C2)c(Cl)c1` [Example 106, (R)-1-[trans-(1S,2S)-6-chloro-1-(2-chloro-4-methanesulfonylphenoxy)-4-fluoroindan-2-yl]pyrrolidin-3-ol] the pIC50 was > 6.00. `O=c1[nH]ccn1-c1cccc(O[C@@H]2c3ccccc3C[C@H]2N2CCCC2)c1` (racemic) [Example 254, 1-[3-(rac-trans-(1,2)-2-pyrrolidin-1-ylindan-1-yloxy)phenyl]-1,3-dihydroimidazol-2-one] was tested, and the pIC50 was > 6.00. In the case of `Cc1cc(=O)cc(C)n1-c1ccc(O[C@H]2c3cc(Cl)cc(Cl)c3C[C@@H]2N2CC[C@@H](O)C2)c(F)c1` [Example 324, 1-{4-[(1S,2S)-4,6-dichloro-2-((R)-3-hydroxypyrrolidin-1-yl)indan-1-yloxy]-3-fluorophenyl}-2,6-dimethyl-1H-pyridin-4-one], the pIC50 was > 6.00. In the case of `CS(=O)(=O)c1ccc(O[C@H]2c3cc(Cl)cc(F)c3C[C@@H]2N2CC[C@@H](O)C2)cc1` [Example 108, (R)-1-[trans-(1S,2S)-6-chloro-4-fluoro-1-(4-methanesulfonylphenoxy)indan-2-yl]pyrrolidin-3-ol], the pIC50 was 5.00 to 6.00. For `Cn1ccn(-c2ccc(Cl)c(O[C@H]3c4cc(Cl)cc(F)c4C[C@@H]3N3CC[C@@H](O)C3)c2)c1=O` [Example 339, 1-{4-chloro-3-[(1S,2S)-6-chloro-4-fluoro-2-((R)-3-hydroxypyrrolidin-1-yl)indan-1-yloxy]phenyl}-3-methyl-1,3-dihydroimidazol-2-one], the pIC50 was > 6.00. With `N[C@H]1CCCN([C@H]2CCc3ccccc3[C@@H]2Oc2ccc(N3CCNCC3)cc2)C1` (racemic) [Example 184, (S)-1-[rac-trans-(1,2)-1-(4-piperazin-1-ylphenoxy)-1,2,3,4-tetrahydronaphthalen-2-yl]piperidin-3-ylamine] the inhibition at 10 µM was 20 to 50%. For `N[C@@H]1CCCN([C@@H]2Cc3ccccc3[C@H]2Oc2ccnc3ccccc23)C1` (racemic) [Example 88, (R)-1-[rac-trans-(1,2)-1-(quinolin-4-yloxy)indan-2-yl]piperidin-3-ylamine], the pIC50 was 5.00 to 6.00. For `NS(=O)(=O)c1ccc(O[C@H]2c3ccccc3C[C@@H]2CN2CCCC2)c(Cl)c1` (racemic) [Example 442, 3-chloro-4-(2-pyrrolidin-1-ylmethylindan-1-yloxy)benzenesulfonamide], the pIC50 was 5.00 to 6.00. For `NS(=O)(=O)c1ccc(O[C@H]2c3ccccc3C[C@@H]2N2CCCC2)c(F)c1` (racemic) [Example 451, 3-fluoro-4-(2-pyrrolidin-1-ylindan-1-yloxy)benzenesulfonamide], the pIC50 was > 6.00. Work on `Cc1nnc(C)n1-c1ccc(O[C@@H]2c3ccccc3C[C@@]2(C)N2CCCC2)c(F)c1` (racemic) [Example 494, 4-[3-fluoro-4-(-2-methyl-2-pyrrolidin-1-ylindan-1-yloxy)phenyl]-3,5-dimethyl-4H-[1,2,4]triazole] yielded a pIC50 of 5.00 to 6.00. `CC(=O)Nc1cccc(O[C@@H]2c3ccccc3C[C@H]2N2CCSCC2)c1` (racemic) [Example 642, N-[3-(rac-trans-(1,2)-2-thiomorpholin-4-ylindan-1-yloxy)phenyl]acetamide] gave a pIC50 of 5.00 to 6.00. Compound `COc1cc(Cl)cc(O[C@@H]2c3ccccc3C[C@H]2N2CCC(CN)C2)c1` (mixture of isomers) [Example 613, C-{1-[rac-trans-(1,2)-1-(3-chloro-5-methoxyphenoxy)indan-2-yl]pyrrolidin-3-yl}methylamine] has a pIC50 of 5.00 to 6.00. With `Cc1nnc(C)n1-c1ccc(O[C@H]2c3cc(Cl)cc(F)c3C[C@@H]2N2CC[C@@H](O)C2)cc1` [Example 144, (R)-1-{trans-(1S,2S)-6-chloro-1-[4-(3,5-dimethyl-[1,2,4]triazol-4-yl)phenoxy]-4-fluoroindan-2-yl}pyrrolidin-3-ol] the pIC50 was > 6.00. Compound `COc1cc(Cl)ccc1O[C@H]1c2ccccc2CC[C@@H]1N1CCC[C@H](N)C1` (racemic) [Example 174, (S)-1-[rac-trans-(1,2)-1-(4-chloro-2-methoxyphenoxy)-1,2,3,4-tetrahydronaphthalen-2-yl]piperidin-3-ylamine] has an inhibition at 10 µM of 20 to 50%. In the case of `O=C1CCC(=O)N1c1cccc(O[C@H]2c3ccccc3C[C@@H]2N2CCCC2)c1` (racemic) [Example 256, 1-[3-(rac-trans-(1,2)-2-pyrrolidin-1-ylindan-1-yloxy)phenyl]pyrrolidine-2,5-dione], the pIC50 was 5.00 to 6.00. `CN1CCN(c2ccc(O[C@H]3c4cc(Cl)cc(Cl)c4C[C@@H]3N3CC[C@@H](O)C3)cc2)C1=O` [Example 332, 1-{4-[trans-(1S,2S)-4,6-dichloro-2-((R)-3-hydroxypyrrolidin-1-yl)indan-1-yloxy]phenyl}-3-methylimidazolidin-2-one] showed a pIC50 of 5.00 to 6.00. In the case of `NCC1CCN([C@@H]2Cc3ccccc3[C@H]2Oc2ccc(-n3cncn3)cc2)C1` (mixture of isomers) [Example 618, C-{1-[rac-trans-(1,2)-1-(4-[1,2,4]triazol-1-ylphenoxy)indan-2-yl]pyrrolidin-3-yl}methylamine], the pIC50 was 5.00 to 6.00. Work on `CS(=O)(=O)c1ccccc1O[C@H]1c2ccccc2CC[C@@H]1N1CCC[C@H](N)C1` (racemic) [Example 156, (S)-1-[rac-trans-(1,2)-1-(2-methanesulfonylphenoxy)-1,2,3,4-tetrahydronaphthalen-2-yl]piperidin-3-ylamine] yielded an inhibition at 10 µM of 20 to 50%.
